Measurements reported in patent publication US11077070B2 (Wilmore Labs LLC, priority 2009, dated 2021).

Assays:
[1] = Pharmacokinetic study, 100 mg resveratrol, oral transmucosal resveratrol/solubilizer formulation (test) versus controls; type: in vivo, human; conditions: for Cav: plasma
Procedure: Any adverse effects are recorded. […] These adjustments are made using the formulas […])).

[2] = Dissolution of resveratrol in sugar or sugar alcohol solutions (observation); type: physicochemical
Procedure: A ribose/water solution (18 g/2 g) was heated.
In another experiment, various sucrose/water mixtures were heated to boiling point. Reservatrol was added to each sucrose/water solution. […] On cooling, resveratrol/sucrose/water mixtures formed crystalline solids composed of small crystals; in contrast, the sucrose/water solution formed a crystalline solid composed of large crystals.
In another experiment, water was added to the solid resveratrol/sucrose/water mixtures.
An aqueous solution of dextrose was prepared and heated to boiling. The resveratrol was added to the warm syrup and allowed to cool further. While still liquid, the syrup retained a capsinoid flavor. On cooling further, a white powdery mixture of crystals was formed. No capsinoid-like flavor was detected when the solid mixture was tasted.
Resveratrol was added to warm solutions of xylitol or erythritol. […] On cooling the xylitol or erythritol solution formed a crystalline solid that appeared to exclude the resveratrol. No capsaicirioid-like flavor was detected when each reservatrol/xylitol and reservatrol/erythritol solid mixture was tasted.
Water was added to the each reservatrol/xylitol and reservatrol/erythritol mixture.

[3] = Solubility of resveratrol in 3M ribose, U.V. HPLC and MS peak areas (Table 2); type: physicochemical
Excerpt: Table 2 and 3 summarize the results.

[4] = Resveratrol solubility in ribose, U.V. HPLC and mass spectrometry peak areas (Table 1); type: physicochemical
Procedure: The peak areas of the LC traces using U.V. and MS spectral detection were determined. […]

[5] = trans/cis isomerisation of resveratrol in water or 3 M ribose, with or without 30 minutes U.V. light (Table 3, FIGS. 1-4); type: physicochemical; conditions: for cis isomer peak area, Mass spectroscopy / cis isomer peak area, PDA (trans-316 nm, cis-284 nm) / cis isomer peak area, Tandem mass spectroscopy / trans isomer peak area, Mass spectroscopy / trans isomer peak area, PDA (trans-316 nm, cis-284 nm) / trans isomer peak area, Tandem mass spectroscopy: UV exposed 30 minutes
Excerpt: PDA-284 nm panel: NL: 4.31E5; nm=283.5-284.5; PDA Avalon. MS Panel: NL: 3.90E6; m/z=226.60-227.60; F: -c APCI corona; sid=10.00; Full ms [100.00-1000.00] MS ICIS. Tandem MS panel: NL: 7.71E5; m/z=184.50-185.50; F: -c APCI corona; sid=10.00 Full ms2 227.00@cid45.00 [60.00-250.00] MS ICIS.

[6] = 1.6 mg resveratrol in 1 ml 3M ribose
[7] = 1.6 mg resveratrol in 1 ml water
[8] = 0.4 mg/ml standard in MeOH/water
[9] = 1.3 mg resveratrol in 1 ml 1M ribose
[10] = 1.3 mg resveratrol in 1 ml water

SMILES: O=S(=O)(O)Oc1cc(O)cc(/C=C/c2ccc(O)cc2)c1 [3-sulfate, trans-resveratrol-3-O-sulfate]
- Cav ([1]; Control(s): 100 mg resveratrol): 0.034 µg/mL
- Cav ([1]; Test: 100 mg resveratrol, oral transmucosal resveratrol/solubilizer formulation): 0.023 µg/mL

SMILES: Oc1ccc(/C=C/c2cc(O)cc(O)c2)cc1 [Resveratrol, 3,5,4′-trihydroxy-trans-stilbene]
- solubility ([2]; aqueous dextrose solution, heated to boiling and cooled): not well soluble
- solubility ([2]; in ribose and in fructose/dextrose): soluble
- solubility in the presence of ribose ([2]; ribose/water solution (18 g/2 g), 100 mg resveratrol to 1000 mg solution, inferred from sensation in the mouth): increased
- dissolution ([2]; sucrose/water solution (1:1 v/v)): failed to dissolve
- dissolution ([2]; various sucrose/water mixtures heated to about 90° C., then cooled): failed to dissolve
- dissolution ([2]; warm solutions of xylitol or erythritol): observed not to dissolve
- behaviour on adding water ([2]; water added to reservatrol/xylitol and reservatrol/erythritol mixtures): precipitated out of solution
- behaviour on adding water ([2]; water added to the solid resveratrol/sucrose/water mixtures): precipitated out of solution
- peak area, Mass spectroscopy [3, 6]: 69226333
- peak area, PDA (trans-316 nm, cis-284 nm) [3, 6]: 17477801
- peak area, Tandem mass spectroscopy [3, 6]: 11603388
- peak area, Mass spectroscopy [3, 7]: 35925663
- peak area, PDA (trans-316 nm, cis-284 nm) [3, 7]: 10448839
- peak area, Tandem mass spectroscopy [3, 7]: 6058729
- % increase of peak area, Mass spectroscopy ([3]; 3M ribose versus water): 92.7%
- % increase of peak area, PDA (trans-316 nm, cis-284 nm) ([3]; 3M ribose versus water): 67.3%
- % increase of peak area, Tandem mass spectroscopy ([3]; 3M ribose versus water): 91.5%
- Resveratrol MS peak area [4, 8]: 361620189
- Resveratrol MS/MS peak area [4, 8]: 22825783
- Resveratrol UV peak area [4, 8]: 32589198
- Resveratrol MS peak area [4, 9]: 34006422
- Resveratrol MS/MS peak area [4, 9]: 2177343
- Resveratrol UV peak area [4, 9]: 6879044
- Resveratrol MS peak area [4, 10]: 17991728
- Resveratrol MS/MS peak area [4, 10]: 1055482
- Resveratrol UV peak area [4, 10]: 3757436
- Resveratrol MS peak area ([4]; 1:1 dilution of ribose sample): 59987321
- Resveratrol MS/MS peak area ([4]; 1:1 dilution of ribose sample): 4277049
- Resveratrol UV peak area ([4]; 1:1 dilution of ribose sample): 10156011
- Resveratrol MS peak area ([4]; 1:1 dilution of water sample): 36350491
- Resveratrol MS/MS peak area ([4]; 1:1 dilution of water sample): 2235878
- Resveratrol UV peak area ([4]; 1:1 dilution of water sample): 7414378
- percentage increase in the peak area with ribose ([4]; ribose (undiluted) sample versus water sample): 83.1%
- cis isomer peak area, Mass spectroscopy ([5]; 3M ribose): 67794774
- cis isomer peak area, PDA (trans-316 nm, cis-284 nm) ([5]; 3M ribose): 3348277
- cis isomer peak area, Tandem mass spectroscopy ([5]; 3M ribose): 12957854
- trans isomer peak area, Mass spectroscopy ([5]; 3M ribose): 30056046
- trans isomer peak area, PDA (trans-316 nm, cis-284 nm) ([5]; 3M ribose): 9667985
- trans isomer peak area, Tandem mass spectroscopy ([5]; 3M ribose): 4678183
- isomers detected, PDA-316 nm panel ([5]; FIG. 1, 1.6 mg resveratrol in 1 ml water, no U.V. exposure): cis isomer is not detected
- isomers detected, PDA-316 nm panel ([5]; FIG. 2, 1.6 mg resveratrol in 1 ml 3 M ribose, no U.V. exposure): cis isomer is not detected
- isomers detected, PDA-316 nm panel ([5]; FIG. 3, 1.6 mg resveratrol in 1 ml water exposed to U.V. light for 30 minutes): trans isomer and cis isomer peaks detected
- isomers detected, PDA-316 nm panel ([5]; FIG. 4, 1.6 mg resveratrol in 1 ml 3 M ribose exposed to U.V. light for 30 minutes): trans isomer and cis isomer peaks detected
- cis isomer peak area, Mass spectroscopy ([5]; Water): 42202693
- cis isomer peak area, PDA (trans-316 nm, cis-284 nm) ([5]; Water): 2260306
- cis isomer peak area, Tandem mass spectroscopy ([5]; Water): 8357052
- trans isomer peak area, Mass spectroscopy ([5]; Water): 7702267
- trans isomer peak area, PDA (trans-316 nm, cis-284 nm) ([5]; Water): 3293034
- trans isomer peak area, Tandem mass spectroscopy ([5]; Water): 1489337
- Serum Cmax levels of resveratrol, test versus control subjects ([1]; 100 mg resveratrol): higher in test subjects
- peak plasma level and bioavailability, test versus controls ([1]; resveratrol/solubilizer formulation by oral transmucosal route versus oral transmucosal resveratrol/sucrose or oral resveratrol/solubilizer): greater peak plasma level and bioavailability
